Reference: patent publication US20130324542A1, “[1,2,4]TRIAZOLO[4,3-B][1,2,4]TRIAZINE COMPOUNDS, PREPARATION METHOD AND USE THEREOF” (SHANGHAI INSTITUTE OF MATERIA MEDICA, CHINESE ACADEMY OF …, priority 2010, published 2013)
pIC50: −log10 of the molar value.

Legend:
c-Met tyrosine kinase = c-Met tyrosine kinase (Homo sapiens, UniProt P08581); experiment: c-Met kinase activity on molecular level (ELISA, Poly(Glu,Tyr)4:1 substrate); type: biochemical; conditions: ATP 5 μM, 37° C., 1 h
Method: Poly(Glu, Tyr)4:1 as an enzyme substrate was diluted by potassium ion-free PBS (10 mM, sodium phosphate buffer, 150 mM NaCl, pH7.2-7.4) into a solution of 20 μg/ml. […] After the liquid in wells was removed, the plate was washed three time by T-PBS (PBS solution containing 0.1% Tween-20) at 200 μl/well, 5 min for each time. The ELISA plate was then dried in an oven at 37° C. for 1-2 h.
Each well was added with 50 μL of ATP solution diluted by reaction buffer (50 mM HEPES pH 7.4, 50 mM MgCl2, 0.5 mM MnCl2, 0.2 mM Na3VO4, 1 mM DTT) at a final concentration of 5 μM. Compound diluted by 1% DMSO into a suitable concentration was added at 10 μl/well and then c-Met tyrosine kinase protein diluted by 40 μl of reaction buffer was added. The plate was placed on a shaking table (100 rpm) at 37° C. and incubated for 1 h, and then washed three times by T-PBS. For each assay, triplicate wells without enzyme were used as blank control and wells having the corresponding DMSO concentration without compound were used as negative control. Primary antibody PY99 (p-Tyr (PY99), Cell Signaling Technology, 1:1000 diluted in 5 mg/mL BSA T-PBS) was added at 100 μl/well. The plate was then placed on a shaking table at 37° C. and incubated for 0.5 h, and washed by T-PBS. Secondary antibody horseradish peroxidase-conjugated goat anti-mouse IgG (1:2000 diluted in 5 mg/mL BSA T-PBS) was added at 100 μl/well. The plate was then placed on a shaking table at 37° C. for 0.5 h and washed three times by T-PBS. 2 mg/mL of OPD developer (diluted by a 0.1M citric acid-sodium citrate buffer (pH=5.4) containing 0.03% of H2O2) was added at 100 μl/well, and the plate was kept in dark at 25° C. for 1-10 min. OPD was ultrasonically dissolved and the developer solution was prepared just before use. 2 M of H2SO4 was added at 50 μl/well to stop the reaction. The plate was read using a wavelength regulated multi-well spectrophotometer (SPECTRA MAX 190) at 490 nm.
The inhibition rate was calculated according to the following equation:
Inhibition rate (%)=(1−(ODcompound−ODblank)/(ODnegative−ODblank))×100%
IC50 value was calculated through a four-parameter fit according to the inhibition curve.

NIH3T3/TPR-Met cells = experiment: Cell proliferation mediated by c-Met, SRB assay, NIH3T3/TPR-Met cells; type: cell-based; conditions: Mus musculus, NIH3T3, 72 h, read-out: inhibition rate (%) on proliferation of NIH3T3/TPR-Met cells
Method: Three concentrations were set, and for each concentration, the test was carried out in triplicate wells. 72 h later, the culture medium was removed. The residue was fixed by precooled 10% TCA at 4° C. for 1 h, washed by distilled water for 5 times and dried at room temperature. […] The excess dye was removed by washed with 1% glacial acetic acid for 5 times and dried in air. At last, 150 μL of Tris-HCL solution (10 mM Tris, pH 10.0) was added to each well.

NIH3T3 background cells = experiment: Cell proliferation, SRB assay, NIH3T3 background cells as control; type: cell-based; conditions: Mus musculus, NIH3T3, 72 h, read-out: inhibition rate (%) on proliferation of NIH3T3 background cells
Method: NIH3T3/TPR-Met cells in the logarithmic growth phase and NIH3T3 background cells were seeded in a 96-well microcuture plate at 90111_, per well and cultivated overnight, followed by addition of 104 of the compound at different concentrations. Three concentrations were set, and for each concentration, the test was carried out in triplicate wells. 72 h later, the culture medium was removed. The residue was fixed by precooled 10% TCA at 4° C. for 1 h, washed by distilled water for 5 times and dried at room temperature. After that, 4 mg/mL of sulforodamine B (SRB) in 1% glacial acetic acid was added to each well (1004 per well) for staining at room temperature for 15 min. The excess dye was removed by washed with 1% glacial acetic acid for 5 times and dried in air. At last, 150 μL of Tris-HCL solution (10 mM Tris, pH 10.0) was added to each well. OD values were measured on a multi-well spectrophotometer at […].

c-Met tyrosine kinase, sequence (P08581 25-1390): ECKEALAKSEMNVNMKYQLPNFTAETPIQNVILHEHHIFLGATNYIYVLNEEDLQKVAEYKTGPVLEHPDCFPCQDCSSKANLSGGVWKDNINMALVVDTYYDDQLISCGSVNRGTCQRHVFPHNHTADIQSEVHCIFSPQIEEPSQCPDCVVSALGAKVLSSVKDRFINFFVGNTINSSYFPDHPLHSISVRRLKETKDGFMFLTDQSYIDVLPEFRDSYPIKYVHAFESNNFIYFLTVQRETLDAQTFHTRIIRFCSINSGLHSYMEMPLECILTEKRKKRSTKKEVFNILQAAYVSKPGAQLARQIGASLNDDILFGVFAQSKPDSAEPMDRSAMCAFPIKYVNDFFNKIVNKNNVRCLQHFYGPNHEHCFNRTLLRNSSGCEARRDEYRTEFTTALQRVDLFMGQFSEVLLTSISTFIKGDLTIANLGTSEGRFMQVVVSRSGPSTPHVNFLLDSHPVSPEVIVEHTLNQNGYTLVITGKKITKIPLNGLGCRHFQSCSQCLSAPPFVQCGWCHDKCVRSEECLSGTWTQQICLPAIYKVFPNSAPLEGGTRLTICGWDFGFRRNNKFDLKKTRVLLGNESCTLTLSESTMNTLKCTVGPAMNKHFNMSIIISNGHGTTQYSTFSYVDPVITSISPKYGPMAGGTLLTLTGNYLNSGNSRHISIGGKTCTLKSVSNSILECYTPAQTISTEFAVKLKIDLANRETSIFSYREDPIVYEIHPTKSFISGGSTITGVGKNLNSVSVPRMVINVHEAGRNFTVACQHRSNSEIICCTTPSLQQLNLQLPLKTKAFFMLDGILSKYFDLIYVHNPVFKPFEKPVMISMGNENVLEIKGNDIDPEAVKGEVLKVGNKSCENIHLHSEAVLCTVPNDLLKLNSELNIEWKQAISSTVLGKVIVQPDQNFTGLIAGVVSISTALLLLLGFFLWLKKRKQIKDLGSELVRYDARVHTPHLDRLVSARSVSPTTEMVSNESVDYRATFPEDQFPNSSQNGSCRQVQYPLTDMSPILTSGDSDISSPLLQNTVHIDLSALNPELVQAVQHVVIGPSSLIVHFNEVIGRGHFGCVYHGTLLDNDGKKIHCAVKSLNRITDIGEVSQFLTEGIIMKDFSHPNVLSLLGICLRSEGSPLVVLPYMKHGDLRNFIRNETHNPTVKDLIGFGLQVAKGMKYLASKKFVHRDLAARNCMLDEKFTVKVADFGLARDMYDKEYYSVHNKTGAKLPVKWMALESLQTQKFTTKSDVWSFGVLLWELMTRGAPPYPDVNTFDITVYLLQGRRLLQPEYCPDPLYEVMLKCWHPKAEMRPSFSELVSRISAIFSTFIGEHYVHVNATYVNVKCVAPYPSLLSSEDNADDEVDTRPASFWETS

Row | Compound | pIC50 (c-Met tyrosine kinase) | inhibition at 1 µM (NIH3T3/TPR-Met cells) [%] | inhibition at 10 µM (NIH3T3/TPR-Met cells) [%] | inhibition at 50 µM (NIH3T3/TPR-Met cells) [%] | inhibition at 1 µM (NIH3T3 background cells) [%] | inhibition at 10 µM (NIH3T3 background cells) [%] | inhibition at 50 µM (NIH3T3 background cells) [%]
1 | CCCn1cc(-c2cnc3nnc(Cc4c[nH]c5ccccc45)n3n2)cn1 [Compound I-9, 3-(3-indolylmethyl)-6-[(1-propyl)-4-pyrazolyl]-[1,2,4]triazolo[4,3-b][1,2,4]triazine] | 6.65 | 5 | 9.4 | 67.5 | 17.8 | 22.7 | 37.3
2 | CC(C)(C)OC(=O)N1CCC(n2cc(-c3cnc4nnc(C(F)(F)c5ccc6ncccc6c5)n4n3)cn2)CC1 [Compound I-20, 3-[(6-quinolyl)difluoromethyl]-6-[1-(1-tert-butoxycarbonyl-4-piperidyl)-4-pyrazolyl]-[1,2,4] triazolo[4,3-b][1,2,4]triazine] | 8.10 | 81.2 | 87.8 | 86.5 | 18.8 | 25.8 | 38.6
3 | FC(F)(c1ccc2ncccc2c1)c1nnc2ncc(-c3cnn(C4CCNCC4)c3)nn12 [Compound I-21, 3-[(6-quinolyl)difluoromethyl]-6-[1-(4-piperidyl)-4-pyrazolyl]-[1,2,4]triazolo[4,3-b][1,2,4] triazine] | 7.09 | 6 | 76.8 | 85.1 | 12 | 25.5 | 28.4
4 | FC(F)(c1ccc2ncccc2c1)c1nnc2ncc(-c3ccc(OCc4ccccc4)cc3)nn12 [Compound I-24, 3-[(6-quinolyl)difluoromethyl]-6-(4-benzyloxy-phenyl)-[1,2,4]triazolo[4,3-b][1,2,4]triazine] | 8.54 | 83.5 | 87.7 | 87.2 | 16.9 | 23.6 | 32.8
5 | c1ccc(COc2ccc(-c3cnc4nnc(Cc5c[nH]c6ccccc56)n4n3)cc2)cc1 [Compound I-18, 3-(3-indolylmethyl)-6-(4-bnzyloxyphenyl)-[1,2,4]triazolo[4,3-b][1,2,4]triazine] | – | – | – | – | 17.5 | 20.8 | 28.7
6 | Brc1ccc(-c2cnc3nnc(Cc4ccc5ncccc5c4)n3n2)cc1 [Compound I-17, 3-(6-quinolylmethyl)-6-(4-bromophenyl)-[1,2, 4]triazolo[4,3-b][1,2,4]triazine] | – | – | – | – | 24.9 | 35.9 | 34.9
7 | c1ccc(COc2ccc(-c3cnc4nnc(Cc5ccc6ncccc6c5)n4n3)cc2)cc1 [Compound I-2, 3-(6-quinolylmethyl)-6-(4-benzyloxyphenyl)-[1,2,4]triazolo[4,3-b][1,2,4]triazine] | – | – | – | – | 16.2 | 28.4 | 33.1

Further lines, with some results ahead:

Row | pIC50 (c-Met tyrosine kinase) | Compound | inhibition at 1 µM (NIH3T3/TPR-Met cells) [%] | inhibition at 10 µM (NIH3T3/TPR-Met cells) [%] | inhibition at 50 µM (NIH3T3/TPR-Met cells) [%] | inhibition at 1 µM (NIH3T3 background cells) [%] | inhibition at 10 µM (NIH3T3 background cells) [%] | inhibition at 50 µM (NIH3T3 background cells) [%]
8 | 8.62 | COc1ccc2c(OCc3nnc4ncc(-c5cnn(C)c5)nn34)ccnc2c1 [II-29, 3-[(7-methoxy-4-quinolyl)oxymethyl]-6-[(1-methyl)-4-pyrazolo]-[1,2,4]triazolo[4,3-b][1,2,4] triazine] | 87.4 | 88.2 | 91.9 | 31.8 | 32.9 | 50.9
9 | 9.15 | COc1ccc2c(OCc3nnc4ncc(-c5ccc(Cl)c(Cl)c5)nn34)ccnc2c1 [II-20, 3-[(7-methoxy-4-quinolyl)oxymethyl]-6-(3,4-dichlorophenyl)-[1,2,4]triazolo[4,3-b][1,2,4] triazine] | 78.7 | 89.4 | 86.7 | 10.4 | 22.5 | 21.4
10 | 8.52 | COc1cc2nccc(OCc3nnc4ncc(-c5ccc(F)cc5)nn34)c2cc1OC [II-14, 3-[(6,7-dimethoxy-4-quinolyl)oxymethyl]-6-(4-fluorophenyl)-[1,2,4]triazolo[4,3-b][1,2,4] triazine] | – | 75.6 | – | – | 0 | –
11 | 9.43 | COc1ccc2c(OCc3nnc4ncc(-c5ccc(Cl)cc5)nn34)ccnc2c1 [II-2, 3-[(7-methoxy-4-quinolyl)oxymethyl]-6-(4-chlorophenyl)-[1,2,4]triazolo[4,3-b][1,2,4]triazine] | – | 79 | – | – | 21 | –
12 | 9.11 | COC(=O)c1ccc(-c2cnc3nnc(COc4ccnc5cc(OC)ccc45)n3n2)cc1 [II-5, 3-[(7-methoxy-4-quinolyl)oxymethyl]-6-(4-methoxyformylphenyl)-[1,2,4]triazolo[4,3-b][1,2, 4]triazine] | – | 79.2 | – | – | 6.2 | –
13 | 6.74 | COc1cc2nccc(OCc3nnc4ncc(-c5ccc(Cl)cc5)nn34)c2cc1OC [II-15, 3-[(6,7-dimethoxy-4-quinolyl)oxymethyl]-6-(4-chlorophenyl)-[1,2,4]triazolo[4,3-b][1,2,4] triazine] | – | 22.6 | – | – | 0 | –
14 | 9.15 | c1ccc(-c2cnc3nnc(COc4ccnc5ccccc45)n3n2)cc1 [II-22, 3-(4-quinolyloxymethyl)-6-phenyl-[1,2,4] triazolo[4,3-b][1,2,4]triazine] | 63.9 | 81.7 | 78.8 | 38.6 | 53.8 | 48.1
15 | 8.10 | Cc1[nH]c(/C=C2\C(=O)Nc3ccc(S(=O)(=O)N(C)c4cccc(Cl)c4)cc32)c(C)c1C(=O)N1CCN(C)CC1 [SU11274, reference compound] | 8.5 | 80.1 | 88.7 | 19.9 | 44.2 | 70.6
16 | 9.09 | Fc1ccc(-c2cnc3nnc(COc4ccnc5ccccc45)n3n2)cc1 [II-21, 3-(4-quinolyloymethyl)-6-(4-fluorophenyl)-[1,2,4]triazolo[4,3-b][1,2,4]triazine] | 24.6 | 81.4 | 84.3 | 28.9 | 53.9 | 57.5
17 | 7.70 | COc1ccc2c(OCc3nnc4ncc(-c5cccs5)nn34)ccnc2c1 [II-4, 3-[(7-methoxy-4-quinolyl)oxymethyl]-6-(2-thienyl)-[1,2,4]triazolo[4,3-b][1,2,4]triazine] | – | 80.6 | – | – | 0 | –
18 | 9.00 | COc1cccc(-c2cnc3nnc(COc4ccnc5ccccc45)n3n2)c1 [II-26, 3-(4-quinolyloxymethyl)-6-(3-methoxyphenyl)-[1,2,4]triazolo[4,3-b][1,2,4]triazine] | 20.9 | 82.7 | 83.9 | 36.8 | 58.7 | 62.2
